Laboratory results as given in patent publication US20240270762A1, “PENICILLIN-BINDING PROTEIN INHIBITORS” (priority 2021, published 2024).

Molecular target: T1, PBP2 from Neisseria gonorrhoeae (FA19) (Neisseria gonorrhoeae, UniProt P08149)
T1 construct: made in house
Experiment: Bocillin-FL fluorescence polarization competition binding, N. gonorrhoeae PBP2
Conditions: fluorescence polarization competition binding assay using Bocillin-FL, read-out: N. gonorrhoeae PBP2 Potency
Outline: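 Fluorescence polarization competition with 0.1 μM Bocillin-FL (fluorescent penicillin V) against 0.25 μM N. gonorrhoeae FA19 PBP2 in 50 mM Hepes pH 8.0, 300 mM NaCl, 10% glycerol. Boronic acid inhibitors were preincubated with PBP, then Bocillin-FL was added and FP read (490/520 nm) up to 60 min. EC50 is the concentration halving PBP-bound Bocillin-FL.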

T1 sequence (P08149 whole entry): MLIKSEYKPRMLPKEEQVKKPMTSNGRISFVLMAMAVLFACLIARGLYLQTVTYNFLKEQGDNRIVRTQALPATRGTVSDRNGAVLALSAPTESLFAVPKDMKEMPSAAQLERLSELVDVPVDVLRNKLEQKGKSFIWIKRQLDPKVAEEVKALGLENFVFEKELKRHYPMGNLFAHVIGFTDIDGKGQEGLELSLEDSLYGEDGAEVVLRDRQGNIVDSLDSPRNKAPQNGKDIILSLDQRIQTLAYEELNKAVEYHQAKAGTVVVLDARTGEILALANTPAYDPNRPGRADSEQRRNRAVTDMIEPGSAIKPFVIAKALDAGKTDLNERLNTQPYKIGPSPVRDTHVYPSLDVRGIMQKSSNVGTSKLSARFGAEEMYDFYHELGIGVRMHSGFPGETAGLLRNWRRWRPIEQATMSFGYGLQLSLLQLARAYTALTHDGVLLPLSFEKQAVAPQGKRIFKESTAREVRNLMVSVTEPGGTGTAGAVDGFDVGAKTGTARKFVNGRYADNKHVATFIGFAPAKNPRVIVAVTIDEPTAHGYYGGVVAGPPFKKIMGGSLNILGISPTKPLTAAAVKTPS

Question: Which EC50 does the source give for `CCN1CCN(C(=O)NC(C(=O)N[C@H]2Cc3cccc(C(=O)O)c3OB2O)c2ccc(P(=O)(O)O)c(F)c2O)C(=O)C1=O` (stereo partly drawn) [Example 198, (3R)-3-(2-(4-ethyl-2,3-dioxopiperazine-1-carboxamido)-2-(3-fluoro-2-hydroxy-4-phosphonophenyl)acetamido)-2-hydroxy-3,4-dihydro-2H-benzo[e][1,2]oxaborinine-8-carboxylic acid] here?
Answer: Its EC50 is less than 10 µM.
